From patent publication US12036229B2, “Use of phosphorylated heptose compounds” (NATIONAL RESEARCH COUNCIL OF CANADA, priority 2017, dated 2024)

Test system: CT26 cells (colon carcinoma from BALB/c mice)
Experiment: CT26 tumour model in BALB/c mice
Format: in vivo
Settings: intraperitoneal; HMP 200 μg per day D10, D11, D12; LPS 1x at 3 mg/kg; 11 day period, vs PBS; FIG. 14c

lipopolysaccharide [LPS]
change in tumour volume relative to day 10 (rate of tumour growth): significantly reduced the rate of tumour growth
